This is an account of results in patent publication US12714728B2, “Methods for the production of cardiac fibroblasts” (FUJIFILM Cellular Dynamics, Inc., priority 2022, dated 2026).

The test system of test [1] is iPS cells (WT1+ epicardial cells). Put plainly: Epicardial (WT1+) progenitor induction from iPS cells, CHIR dose titration / ABC. It is filed as cell-based, human. On the procedure:
Cardiac mesoderm cells were then dissociated and contacted with a low concentration of Wnt inhibitor, XAV939, (Table 4) for two days to be specified into a WT1 epicardial lineage (FIG. 3A). The percentage of epicardial cells were measured in single CHIR, ABC, and double CHIR conditions. Epicardial induction with single CHIR or ABC step produced a mixed population of epicardial cells and cardiomyocytes. The percentage of WT1+ epicardial cells ranged from 30% WT1 to 90% WT1. These epicardial progenitors were used directly for cardiac fibroblast induction without additional passaging or purification of epicardial cells. A dose titration of CHIR was performed on iPS cells. […] A dose of 6 μM CHIR on Day 1 generated a population of 60% WT1 epicardial progenitor cells that have characteristic cobblestone morphology by Day 14 (FIG. 3C). […] When Activin and BMP were added with the single CHIR, the epicardial cells retained a flattened cobble stone morphology and dark, round nucleus. Cell-cell borders became less pronounced. There was no need to passage the epicardial cells. […] This was visible by increased cell numbers, decreased cell size, and more elongated morphology.

A further test has as its system ROCK1/ROCK2. Particulars: competing with ATP; cited from earlier work.
For test [2], the system named is isogenic tri-culture cardiac microtissues (iPSC-derived cardiomyocytes, endothelial cells, cardiac fibroblasts). Put plainly: Calcium transient / inotropic response of isogenic tri-culture cardiac microtissues. It is filed as cell-based, human. To be noted: for calcium amplitude inotropic response with increased CF content: DIV 14, 10,000 total cells, 20% endothelial cells, varying cardiac fibroblast content. From the text: For the cardiac tri-culture microtissue assay, cryopreserved iPSC-derived cell types were combined in a specific ratio and formed into microtissues in microwell plates (FIG. 5A). Microtissues containing 65% iCell Cardiomyocytes, 20% iCell Endothelial cells, and 15% iPSC derived cardiac fibroblasts are shown in FIG. 5B. After 1-2 days, the microtissues were contracting.
Microtissues were fed a co-culture medium (Table 8) to support all three cell types. […] Microtissues were generated from three donor lines 11713, 01279, and 01434. Microtissues contained either iPSC-derived cardiomyocytes only or were tri-culture, containing isogenic iPSC-derived cardiomyocytes, iPSC-derived endothelial cells, and iPSC-derived cardiac fibroblasts. All microtissues were assayed for response to isoproterenol on Day 14 of culture. […] This response was in tri-culture microtissues from all three donor lines, in two independently produced lots of cardiac fibroblasts from donor 01434, and in microtissues containing cardiac fibroblasts from two independently derived clones from donor 11713 (11713.008 and 11713.847).
Response to dobutamine (DOB), digoxin (DIG), isoproterenol (ISO), and epinephrine (EPI) were assessed at DIV 14 on cardiac tri-culture microtissues comprised of 10,000 total cells and 20% iCell Endothelial Cells and iCell Cardiomyocytes and varying concentrations of iPSC derived cardiac fibroblasts (CF). […] (FIG. 6B).
(§1) Tri-culture microtissues were made from Normal Healthy Control (NHC) and isogenic LMNA-L35P iPSC-derived cell types. Fourteen days post microtissue formation, microtissues were challenged with isoproterenol.

Test [3] deals with isogenic LMNA-L35P iPSC-derived tri-culture microtissues. In words: Calcium transient response of LMNA-L35P disease model tri-culture microtissues. It is filed as cell-based, human. Particulars: LMNA-L35P disease model microtissue; fourteen days post formation.
From the text: as §1

Test [4] concerns iPSC derived cardiac fibroblasts. Put plainly: Activation of iPSC-derived cardiac fibroblasts with TGFβ. It is filed as cell-based, human. On the procedure: The cardiac fibroblasts were thawed and plated on vitronectin-coated plates at 10 k/cm^2 and activated with TGFβ. TGFβ was added at 20 ng/mL or 40 ng/mL to activate cardiac fibroblasts on Day 2, with a media change on Day 4. On Day 5, media supernatants were collected and analyzed for fibronectin secretion by a Human FN ELISA Kit Cat #BMS2028. On Day 3 and Day 5, cardiac fibroblasts were harvested and counted by ViCell-XR. After 5 days cells were collected for flow cytometry.

Test [5] concerns epicardial progenitors from the ABC method. In words: Cardiac fibroblast differentiation in serum with varying basic FGF, CD29 positive cells. The format is cell-based, human. Particulars: increasing concentrations of basic FGF, serum-containing medium. On the procedure: Cardiac fibroblasts were induced in serum containing conditions on Day 25. The cells were fed DMEM-Low glucose, 10% FBS, Ascorbic Acid, and 200 ng/mL basic FGF and purified through successive passaging (Table 6). Cardiac fibroblasts were >85% positive for TE-7 and CD29 and quiescent (i.e., less than 5% αSMA) (FIG. 4A).

For `Cc1c[nH]c(-c2cnc(NCCNc3ccc(C#N)cn3)nc2-c2ccc(Cl)cc2Cl)n1` [CHIR, CHIR99021], in test [1] (6 μM CHIR on Day 1, single CHIR method), the “WT1 epicardial progenitor cells” value is given as 60%. For the same compound, the “effect of increasing dose on percentage of WT1+ epicardial cells” value in test [1] (dose on Day 1, single CHIR method, read on Day 9) is given as “did not increase the percentage of WT1+ epicardial cells”. With `C[C@@H](N)[C@H]1CC[C@H](C(=O)Nc2ccncc2)CC1` [Y-27632], in the test with ROCK1/ROCK2, the IC50 (usually the concentration that gives 50% inhibition) is 0.8 µM. For `C[C@H]1O[C@@H](O[C@H]2[C@@H](O)C[C@H](O[C@H]3[C@@H](O)C[C@H](O[C@H]4CC[C@@]5(C)[C@H](CC[C@@H]6[C@@H]5C[C@@H](O)[C@]5(C)[C@@H](C7=CC(=O)OC7)CC[C@]65O)C4)O[C@@H]3C)O[C@@H]2C)C[C@H](O)[C@@H]1O` [digoxin], in test [2], the “calcium amplitude inotropic response with increased CF content” value is “increased calcium amplitude inotropic response”.

As to `CC(CCc1ccc(O)cc1)NCCc1ccc(O)c(O)c1` (centres unmarked) [dobutamine], in test [2], the “calcium amplitude inotropic response with increased CF content” value was “increased calcium amplitude inotropic response”.

Regarding `CNC[C@H](O)c1ccc(O)c(O)c1` [epinephrine], the “calcium amplitude inotropic response with increased CF content” value in test [2] is given as “increased calcium amplitude inotropic response”. Turning to `CC(C)NCC(O)c1ccc(O)c(O)c1` (centres unmarked) [isoproterenol], in test [2] (100 nM isoproterenol, Normal Healthy Control microtissues, fourteen days post microtissue formation), the calcium transient amplitude entry is recorded as “increase in calcium transient amplitude”. Moreover, in test [2] (Day 14 of culture, three donor lines), the “calcium transient amplitude response to isoproterenol” value was “increase in calcium transient amplitude”. In test [2] (in the presence of isoproterenol), the “beat rate by calcium transient” value is given as “increase in beat rate”. Besides, the “response to isoproterenol (calcium transient amplitude)” value in test [3] is “did not respond”.

Take TGFβ: in test [4] (20 ng/mL TGFβ for 4 days, single CHIR and double CHIR cardiac fibroblasts), the “gene expression by quantitative real-time PCR” value was “increased POSTN, DDR2, COL1A1, COL1A2, GJA1, and ACTA2 expression”. For the same compound, the “alpha smooth muscle actin expressing population (flow cytometry)” value in test [4] (TGFβ 20 ng/mL or 40 ng/mL added Day 2, cells collected after 5 days) is on record as “alpha smooth muscle actin expressing population was seen to emerge”. Further, the fibronectin secretion entry in test [4] (cardiac fibroblasts from serum-containing and serum-free induction) is “increased fibronectin secretion”.

As to “basic FGF: basic fibroblast growth factor used for cardiac fibroblast induction”, in test [5], the “percentage of CD29 positive cells” value is listed as “increase the percentage of CD29 positive cells”.
